Results as given in PubChem BioAssay AID248 (DTP/NCI, 2004).
“And” between values parts separate entries of the source, which are not always exact repeats. Equal values may be shown once. Toxic doses and inconclusive results are not listed. Rule as the data show it: active = T/C of 150% or more; inactive = T/C below 125%.

System: L1210 leukemia ip in BDF1 mice, survival T/C
Assay: NCI In Vivo Anticancer Drug Screen. Data for tumor model L1210 Leukemia (intraperitoneal) in B6D2F1 (BDF1) mice
Settings: endpoint: mean survival time, higher = longer survival
Method in brief: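 Tumor was transplanted into mice, which were then dosed with test compound or vehicle alone. Survival was recorded for each group, and the treated figure was expressed relative to the control figure.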

[1] = dose: 100.0 mg/kg/injection, schedule: Q01DX009 (ip), vehicle: saline
[2] = dose: 200.0 mg/kg/injection, schedule: Q01DX009 (ip), vehicle: saline
[3] = dose: 400.0 mg/kg/injection, schedule: Q01DX009 (ip), vehicle: saline
[4] = dose: 100.0 mg/kg/injection, schedule: Q04DX003 (ip), vehicle: saline
[5] = dose: 200.0 mg/kg/injection, schedule: Q04DX003 (ip), vehicle: saline
[6] = dose: 400.0 mg/kg/injection, schedule: Q04DX003 (ip), vehicle: saline
[7] = dose: 100.0 mg/kg/injection, schedule: Q01DX001 (ip), vehicle: saline
[8] = dose: 200.0 mg/kg/injection, schedule: Q01DX001 (ip), vehicle: saline
[9] = dose: 200.0 mg/kg/injection, schedule: Q04DX003 (ip), vehicle: acetone
[10] = dose: 400.0 mg/kg/injection, schedule: Q01DX001 (ip), vehicle: saline
[11] = dose: 100.0 mg/kg/injection, schedule: Q01DX001 (ip), vehicle: carboxymethylcellulose (CMC)
[12] = dose: 200.0 mg/kg/injection, schedule: Q01DX001 (ip), vehicle: carboxymethylcellulose (CMC)
[13] = dose: 400.0 mg/kg/injection, schedule: Q01DX001 (ip), vehicle: carboxymethylcellulose (CMC)
[14] = dose: 100.0 mg/kg/injection, schedule: Q01DX009 (ip), vehicle: Klucel (hydroxypropylcellulose) (HPC)
[15] = dose: 100.0 mg/kg/injection, schedule: Q04DX003 (ip), vehicle: Klucel (hydroxypropylcellulose) (HPC)
[16] = dose: 200.0 mg/kg/injection, schedule: Q01DX009 (ip), vehicle: Klucel (hydroxypropylcellulose) (HPC)
[17] = dose: 200.0 mg/kg/injection, schedule: Q04DX003 (ip), vehicle: Klucel (hydroxypropylcellulose) (HPC)
[18] = dose: 400.0 mg/kg/injection, schedule: Q01DX009 (ip), vehicle: Klucel (hydroxypropylcellulose) (HPC)
[19] = dose: 400.0 mg/kg/injection, schedule: Q04DX003 (ip), vehicle: Klucel (hydroxypropylcellulose) (HPC)
[20] = dose: 100.0 mg/kg/injection, schedule: Q04DX002 (ip), vehicle: saline

Measured: T/C

CCC[CH2][Sn]1([CH2]CCC)[O]CC2(CCCCC2)C[O]1
inactive: dose: 2.5 mg/kg/injection, schedule: Q04DX002 (ip), vehicle: saline + alcohol 94 % of control and 102 % of control | dose: 5.0 mg/kg/injection, schedule: Q04DX002 (ip), vehicle: saline + alcohol 105 % of control and 118 % of control | dose: 10.0 mg/kg/injection, schedule: Q04DX002 (ip), vehicle: saline + alcohol 105 % of control | dose: 20.0 mg/kg/injection, schedule: Q04DX002 (ip), vehicle: saline + alcohol 93 % of control and 105 % of control

N#Cc1ccccc1N=NNc1ccccc1C#N
inactive: dose: 6.25 mg/kg/injection, schedule: Q01DX009 (ip), vehicle: Klucel (hydroxypropylcellulose) (HPC) 112 % of control | dose: 12.5 mg/kg/injection, schedule: Q01DX009 (ip), vehicle: Klucel (hydroxypropylcellulose) (HPC) 112 % of control | dose: 25.0 mg/kg/injection, schedule: Q01DX009 (ip), vehicle: Klucel (hydroxypropylcellulose) (HPC) 115 % of control | dose: 75.0 mg/kg/injection, schedule: Q01DX001 (ip), vehicle: other 96 % of control | dose: 150.0 mg/kg/injection, schedule: Q01DX001 (ip), vehicle: other 92 % of control

CC(C)N(C(=S)S)C(C)C
inactive: [1] 105 % of control | [2] 102 % of control | [3] 103 % of control

C=C(C)C(C(=O)OC)n1scc(NCc2ccccc2)c1=O (stereo unspecified)
inactive: [4] 91 % of control | [5] 91 % of control | [6] 89 % of control

Cc1ccc(S(=O)(=O)C2=C(c3ccccc3)c3ccccc3CC2)cc1
inactive: [7] 101 % of control | [1] 93 % of control | dose: 100.0 mg/kg/injection, schedule: Q04DX003 (ip), vehicle: acetone 100 % of control | [8] 93 % of control | [2] 91 % of control | [9] 102 % of control | [10] 95 % of control | [3] 93 % of control | dose: 400.0 mg/kg/injection, schedule: Q04DX003 (ip), vehicle: acetone 105 % of control

CC(=O)Nc1ccc2c(c1)C(C)c1ccccc1-2 (stereo unspecified)
inactive: [11] 89 % of control | [12] 95 % of control | [13] 93 % of control

O=[N+]([O-])c1ccc(/C=C/CCOc2ccccc2)cc1
inactive: [14] 98 % of control | [15] 97 % of control | [16] 96 % of control | [17] 105 % of control | [18] 91 % of control | [19] 105 % of control

CCN(CC)CCCC(C)Nc1ccnc2cc(Cl)ccc12 (stereo unspecified)
inactive: dose: 25.0 mg/kg/injection, schedule: Q01DX001 (ip), vehicle: saline 103 % of control | dose: 25.0 mg/kg/injection, schedule: Q01DX009 (ip), vehicle: saline 100 % of control | dose: 25.0 mg/kg/injection, schedule: Q04DX002 (ip), vehicle: saline 95 % of control | dose: 50.0 mg/kg/injection, schedule: Q01DX001 (ip), vehicle: saline 104 % of control | dose: 50.0 mg/kg/injection, schedule: Q01DX009 (ip), vehicle: saline 97 % of control and 98 % of control | dose: 50.0 mg/kg/injection, schedule: Q04DX002 (ip), vehicle: saline 95 % of control | dose: 50.0 mg/kg/injection, schedule: Q04DX003 (ip), vehicle: saline 105 % of control | [7] 118 % of control and 92 % of control | [1] 98 % of control | [20] 95 % of control | [4] 108 % of control

CN(CCO)CC(O)Cn1cnc2c1c(=O)n(C)c(=O)n2C (stereo unspecified) (tested in a mixture with another compound)
inactive: [7] 108 % of control | [8] 112 % of control | [10] 104 % of control

CC1([N+](=O)[O-])COP(=O)(NCC2CCCO2)OC1 (stereo unspecified)
inactive: dose: 50.0 mg/kg/injection, schedule: Q01DX001 (ip), vehicle: carboxymethylcellulose (CMC) 98 % of control | [11] 104 % of control | [12] 104 % of control | [13] 93 % of control

O=C1CCCCC1Cc1ccccc1 (stereo unspecified)
inactive: [9] 95 % of control

O=C(O)c1cc(Cl)c(Cl)s1
inactive: dose: 25.0 mg/kg/injection, schedule: Q04DX003 (ip), vehicle: Klucel (hydroxypropylcellulose) (HPC) 101 % of control | dose: 50.0 mg/kg/injection, schedule: Q04DX003 (ip), vehicle: Klucel (hydroxypropylcellulose) (HPC) 100 % of control | [15] 103 % of control

COc1cc(C(=O)NNS(=O)(=O)c2ccccc2)cc(OCc2ccccc2)c1OC
inactive: [20] 97 % of control | dose: 200.0 mg/kg/injection, schedule: Q04DX002 (ip), vehicle: saline 97 % of control | dose: 400.0 mg/kg/injection, schedule: Q04DX002 (ip), vehicle: saline 95 % of control

O=[N+]([O-])c1cc([N+](=O)[O-])c(NN(c2ccccc2)c2cccc3ccccc23)c([N+](=O)[O-])c1
inactive: dose: 50.0 mg/kg/injection, schedule: Q01DX009 (ip), vehicle: Klucel (hydroxypropylcellulose) (HPC) 101 % of control | [14] 101 % of control | [15] 96 % of control | [16] 102 % of control | [17] 94 % of control | [18] 98 % of control | [19] 94 % of control

CC(C)OC(=O)c1cccc2c1-c1ccccc1C2=O
inactive: [7] 92 % of control | [8] 92 % of control | [10] 95 % of control

C1CCC2C(C1)CCCC2CC1CCCC2CCCCC21 (stereo unspecified)
inactive: dose: 75.0 mg/kg/injection, schedule: Q01DX001 (ip), vehicle: acetone 100 % of control | dose: 150.0 mg/kg/injection, schedule: Q01DX001 (ip), vehicle: acetone 106 % of control | dose: 300.0 mg/kg/injection, schedule: Q01DX001 (ip), vehicle: acetone 100 % of control

COc1ccc(C(O)c2c(CN3CCCCC3)c3ccccc3n2C)cc1 (stereo unspecified)
inactive: dose: 100.0 mg/kg/injection, schedule: Q04DX002 (ip), vehicle: saline with Tween-80 100 % of control | dose: 200.0 mg/kg/injection, schedule: Q04DX002 (ip), vehicle: saline with Tween-80 97 % of control

Nc1ccnc(Br)c1
inactive: [1] 103 % of control | [4] 109 % of control | [2] 100 % of control | [5] 107 % of control | [3] 101 % of control | [6] 112 % of control

Cc1ccc(S(=O)(=O)Oc2ccc([N+](=O)[O-])cc2)cc1
inactive: [14] 103 % of control | [15] 97 % of control | [16] 97 % of control | [17] 94 % of control | [18] 102 % of control | [19] 100 % of control

Cn1c(Cl)c(C(=O)O)c2ccccc21
inactive: dose: 50.0 mg/kg/injection, schedule: Q04DX002 (ip), vehicle: Klucel (hydroxypropylcellulose) (HPC) 97 % of control | dose: 100.0 mg/kg/injection, schedule: Q04DX002 (ip), vehicle: Klucel (hydroxypropylcellulose) (HPC) 97 % of control | dose: 200.0 mg/kg/injection, schedule: Q04DX002 (ip), vehicle: Klucel (hydroxypropylcellulose) (HPC) 101 % of control

O=C1OC(=O)c2c1ccc1ccc(Cl)cc21
inactive: dose: 100.0 mg/kg/injection, schedule: Q04DX003 (ip), vehicle: saline with Tween-80 94 % of control | dose: 200.0 mg/kg/injection, schedule: Q04DX003 (ip), vehicle: saline with Tween-80 94 % of control | dose: 400.0 mg/kg/injection, schedule: Q04DX003 (ip), vehicle: saline with Tween-80 102 % of control
